Columns and labels:
[1] = tested on: intracellular S. aureus strain ISP479C in human brain microvascular endothelial cells (hBMEC); assay: Intracellular S. aureus eradication assay in hBMEC; type: cell-based; settings: 5 μg/ml, 1 h
Source text: FIGS. 5a-5e depict peptidoglycan hydrolase-protein transduction domain (PGH-PTD) eradication of intracellular S. aureus in cultured cells. Cultured cells were infected, treated with gentamicin to kill extracellular S. aureus, and then treated with the peptidoglycan hydrolases indicated. All results are standardized to the gentamicin (GENT) only control. Nomenclature of the peptidoglycan hydrolase constructs is as in FIG. 1. Asterisks indicate statistical significance detected with single factor ANOVA (α=0.05) with paired t-test posthoc analyses α=0.05 adjusted with Sidák correction for multiple comparisons (for all cases p<0.01). […] Error bars represent SEM. […] Yellow staining in the combined panel represents intracellular co-localization (in a single plane as determined by z-stack analysis) of both S. aureus and K-L-PTD1 (blue arrow). […]
Three similar intracellular S. aureus eradication assays from three different labs were optimized for (A) a cultured bovine mammary epithelial cell line (MAC-T, Nexia Biotechnologies, Quebec, Canada; Almeida, supra), (B) primary C57BL/6 mouse-derived osteoblasts (mOBs) (McCall et al. 2008. J. Bone Miner. Res. 23: 30-40) or (C) human brain microvascular endothelial cells (hBMEC; Stins, supra). […] The cell lysate was subjected to serial dilution plating, and the resultant CFUs were counted and normalized to the gentamicin control for each assay. […]

S. aureus strain ALR = assay: Rat nasal colonization model; type: in vivo, Wistar rats
Source text: FIGS. 1a-1c depict peptidoglycan hydrolase construct schematics, resistance development and effectiveness in eradicating S. aureus carriage in a rat colonization model. FIG. 1a is a schematic of the peptidoglycan hydrolase constructs. Domains: CHAP endopeptidase (CHAP, red box); N-acetylmuramoyl-L-alanine amidase (AMID, green box); M23 endopeptidase (PEP, blue oval); CBDs (LysK SH3b, gold diamond; lysostaphin SH3b, gold diamond with dot); protein transduction domain (PTD, blue circle); hexahistidine purification tag (His6). Domains are not to scale. Specific peptidoglycan cut sites are illustrated in FIG. 3a. FIG. 1b depicts in vitro antimicrobial resistance development. Engineered triple fusions K-L and L-K suppress antimicrobial resistance development compared to LysK (K), lysostaphin (L), or a combination of equimolar concentrations of both (L+K). Changes in Minimum Inhibitory Concentrations (MIC) are depicted as a fold-change at the tenth round of sublethal exposure compared to the first exposure, with the average fold-change of 4 replicates in red. Error bars=SEM. First exposure MICs: Lysostaphin, 0.77 μg/ml (27 nM); LysK, 47 μg/ml (840 nM); Lysostaphin and LysK (L+K) in combination 0.2 μg/ml (7 nM and 3 nM, respectively); triple fusion K-L, 7 μg/ml (97 nM); triple fusion L-K, 7.8 μg/ml (107 nM). FIG. 1c depicts reduction in colonization in a rat nasal carriage model. Rats were inoculated with S. aureus strain ALR on Day 1. After 5 days, the rats were treated twice daily for 3 days with 20 μl of a 10 mg/ml solution of each enzyme. The rat noses were excised on day 10, homogenized, and quantitative cultures were performed. Each point represents the CFU recovered from an individual rat. Bars indicate the median CFU/nose recovered from treated rats. […] Data were compiled from five independent experiments. Lyso=commercially purchased lysostaphin (AMBI, Tarrytown, N.Y.). Statistical comparisons were made with the Mann-Whitney test. SEQ ID NOs of depicted peptidoglycan hydrolase constructs: Lysostaphin (SEQ ID NO:1); Lysostaphin-PTD1-4, 6-12 (SEQ ID NOs:9, 11, 13, 15, 17, 19, 21, 23, 25, 27, 29, respectively); LysK (SEQ ID NO:3); LysK-PTD1-11 (SEQ ID NOs: 31, 33, 35, 37, 39, 41, 43, 45, 47, 49, 51, respectively); LysK-Lysostaphin Fusion K-L (SEQ ID NO:5); K-L-PTD1-4, 6-11 (SEQ ID NOs:53, 55, 57, 59, 61, 63, 65, 67, 69, 71, respectively); Lysostaphin-LysK Fusion L-K (SEQ ID NO:7).
Reduction in nasal colonization was observed when rats were challenged on day 0 with 10^7 CFU S. aureus strain ALR and then treated twice per day on days 5, 6, and 7 with 10 μl of 2% mupirocin calcium ointment (Bactroban Nasal) or petrolatum/softisan placebo. Noses from rats were homogenized and cultured quantitatively on day 10. Each point represents the CFU recovered from an individual rat, and the data were compiled from two independent experiments. Data were analyzed by the Mann-Whitney test, and horizontal lines represent median values. Mupirocin reduced colonization ˜98% compared to the placebo control.
The rat nasal colonization model is an adaptation of the mouse nasal colonization model that we described previously (Schaffer et al. 2006. Infect. Immun. 74:2145-2153). All animal experiments were conducted in accordance with a protocol approved by the appropriate Institutional Animal Care and Use Committees. Wistar rats (5 to 6 wks of age) were obtained from Charles River Laboratories (Wilmington, Mass.) and given food and water ad libitum. The animals were housed two per cage in a modified barrier facility under viral antibody-free conditions. The rats were given drinking water containing streptomycin sulfate (0.5 g/liter; Sigma) 1 day prior to bacterial inoculation and for the course of the experiment. The drinking water and cages were changed three times per week. […]

S. aureus strain Newman = type: cell-based; settings: tenth round compared to first exposure
Protocol: For the MIC repeated exposure method, MIC determinations were performed with S. aureus strain Newman. 100 μl of S. aureus strain Newman culture that survived at ½ the MIC (the first well with visible growth) for each round was inoculated into 5 ml TSB and cultivated to mid-log phase growth. This culture was used as the inoculum for the next round of MIC exposure (overnight growth), and the cycle was repeated for 10 rounds.
Development of resistance to the triple-acting fusion enzymes was tested on S. aureus strain Newman and compared to both parental enzymes applied individually or simultaneously. […] Survivors of the ten round exposure to peptidoglycan hydrolase were passaged five times in medium with no peptidoglycan hydrolase added. […] We compared our triple-acting fusions to small molecule antibiotics in similar assays.

S. aureus Newbould 305 [2] = assay: Murine model of mastitis, bacterial load; type: in vivo, C57BL6/SJL mice; settings: single 1.25 nmoles intramammary infusion 30 minutes post infection, 18 h
Protocol: (§1) FIG. 6a depicts the specific activity of peptidoglycan hydrolase fusion constructs in vitro in a turbidity reduction assay with S. aureus Newbould 305 resuspended in lysis buffer to an OD600nm of 1.0 and treated with 1 μM final concentrations of each peptidoglycan hydrolase. The maximum specific activity for three experiments are represented as an average with SEM error bars. FIG. 6b depicts the bacterial burden in mice with mastitis treated with recombinant peptidoglycan hydrolases. Colony Forming Units (CFUs) from infected murine mammary glands following a single treatment with 50 μl of 25 μM peptidoglycan hydrolase (1.25 nmol). Each data point represents the average of duplicate bacterial platings. The horizontal bars represent the average CFU/mg for each group. FIG. 6c illustrates the TNFα response in mice with mastitis that were treated with peptidoglycan hydrolases. Data represents a minimum of 7 measurements in duplicate. Log TNFα was used for statistical analysis. Single asterisks indicate a significant difference from buffer control (p<0.05); double asterisks indicate a significant difference from the parental enzyme (p<0.05).
To evaluate the efficacy of purified, individually administered peptidoglycan hydrolases in a murine model of bovine mastitis, female C57BL6/SJL mice were challenged by the intramammary route with 100 CFU S. aureus Newbould 305 in 50 μl buffer. A single 1.25 nmoles intramammary infusion of each desired peptidoglycan hydrolase (50 μl of a 25 μM solution) or 50 μl PBS was given 30 minutes post infection [with up to six glands treated per animal, each gland receiving a unique treatment] as described earlier (Schmelcher et al. 2012. Appl. Environ. Microbiol. 78:2297-2305; Kerr et al. 2001. Nat. Biotechnol. 19:66-70). Dams were euthanized 18 h post infusion, the mammary glands were aseptically dissected, and portions of the gland were used for determination of bacterial load and TNFα concentrations, as described previously (Schmelcher et al., supra).
Statistical analysis: The variables were analyzed as two-factor mixed models with Treatment as the factor and Mouse as random Blocks. This model […] within mouse correlations. Log(TNFα) was used. The variance grouping technique was used for log CFU and log TNFα to correct for variance heterogeneity. Means comparisons were done with Sidak adjusted p-values so that the experiment-wise error was 0.05. Log(TNFα) is back-transformed to the original units for graphing.

S. aureus Newbould 305 [3] = assay: Turbidity reduction assay; type: cell-based; settings: 1 μM enzyme, cells at OD600nm 1.0, FIG. 6a
Protocol: as §1
FIG. 7 depicts a turbidity reduction assay of select peptidoglycan hydrolases against S. aureus Newbould 305. Bacterial cells were resuspended in lysis buffer to an OD600nm of 1.0 and lysed with 1 μM final concentrations of each peptidoglycan hydrolase. The maximum rate of ΔOD of three experiments are represented as an average with error bars representing SEM. Double asterisks indicate significant difference from parental. Mean comparisons were performed with one way ANOVA (P=3.3×10^−5) with t test post hoc analysis with Sidák adjusted alpha (p<0.01).

“1-PTD12: lysostaphin with PTD 12 (TAT 49-57); SEQ ID NO:29” was tested, and the “intracellular S. aureus CFUs relative to gentamicin only control” value [1] was “reduce the intracellular S. aureus strain ISP479C”.

For “lysostaphin (AMBI, Tarrytown, N.Y.): commercially purchased lysostaphin (AMBI, Tarrytown, N.Y.)”, the “decrease in CFU/nose (nasal colonization) compared to rats treated with buffer” value (S. aureus strain ALR; 200 μg intranasally twice a day on days 5, 6, 7, noses cultured day 10) was 87%.

In the case of “Trimethoprim/sulfamethoxazole [reference compound]”, the “increase in MIC after 10 rounds of sub-lethal exposure” value (S. aureus strain Newman) is reported as 6 fold.

`C/C(=C\C(=O)OCCCCCCCCC(=O)O)C[C@@H]1OC[C@H](C[C@@H]2O[C@H]2[C@@H](C)[C@H](C)O)[C@@H](O)[C@H]1O` [Mupirocin, mupirocin, reference compound] was tested, and the “reduction in nasal colonization compared to placebo control” value (S. aureus strain ALR; 10 μl of 2% mupirocin calcium ointment twice per day on days 5, 6, 7, separate experiment) was 98%.

`[H]/N=C(/N)N[C@H]1[C@H](O)[C@@H](O)[C@H](O[C@@H]2O[C@@H](C)[C@](O)(C=O)[C@H]2O[C@@H]2O[C@@H](CO)[C@H](O)[C@@H](O)[C@@H]2NC)[C@@H](N/C(N)=N\[H])[C@@H]1O` [streptomycin, reference compound] was tested, and the “increase in MIC after 10 rounds of sub-lethal exposure” value (S. aureus strain Newman) was 13 fold.

In the case of “L-PTD9: lysostaphin with PTD 9 (TAT 48-60); SEQ ID NO:23”, the “bacterial load / clearance of mammary glands (in words)” value (S. aureus Newbould 305 [2]) is reported as “capable of reducing bacterial load within the mouse mammary glands relative to the PBS buffer control”, the “turbidity reduction (in vitro lytic) activity” value (S. aureus Newbould 305 [3]) is reported as “virtually inactive” and the “turbidity reduction (in vitro lytic) activity” value (S. aureus Newbould 305 [3]; listed as 1-PTD9) is reported as “reduced the in vitro activity”.
